According to patent US11952371B1, “2-[(1,3-benzoxazol-2-yl)imino]-5,5-diphenylimidazolidin-4-one as an antimicrobial compound” (KING FAISAL UNIVERSITY, priority 2023, dated 2024):

Tests used:
Staphylococcus aureus = assay: Agar plate disc-diffusion, antibacterial activity; assay type: cell-based
Description: (§1) The agar plate disc-diffusion method was applied. […] The discs were then placed onto the surface of agar plates (nutrient agar for bacteria and Sabouraud's dextrose agar for fungi) seeded with the test organism. Each plate contained 15 mL of the agar medium, previously seeded with 0.2 mL of the broth culture of each organism pregrown for 18 hours. The plates were incubated at 37° C. for 48 hours, and 72 hours for fungi. The inhibition zones were measured in millimeter. Discs impregnated with DMSO were used as a control, and its inhibition zone was subtracted from the tested compound actual inhibition zone.
(§2) The results of the antimicrobial testing can be observed in Tables 1 and 2, below, with ciprofloxacin serving as a reference.

Escherichia coli = assay: Agar plate disc-diffusion, antibacterial activity; assay type: cell-based
Description: as §1, §2

Bacillus cereus = assay: Agar plate disc-diffusion, antibacterial activity; assay type: cell-based
Description: as §1, §2

Pseudomonas aeruginosa = assay: Agar plate disc-diffusion, antibacterial activity; assay type: cell-based
Description: as §1, §2

Aspergillus flavus = assay: Agar plate disc-diffusion, antifungal activity; assay type: cell-based
Description: as §1, §2

[1] = system: Chrysosporium keratinophilum; assay: Agar plate disc-diffusion, antifungal activity; assay type: cell-based
Description: as §1, §2

[2] = A = concentration of comp. = 10,000 μL
[3] = B = concentration of comp. = 30,000 μL
[4] = C = concentration of comp. = 50,000 μL

| Structure (SMILES) | inhibition zone (Staphylococcus aureus; [2]) [millimeter] | inhibition zone (Staphylococcus aureus; [3]) [millimeter] | inhibition zone (Staphylococcus aureus; [4]) [millimeter] | inhibition zone (Escherichia coli; [2]) [millimeter] | inhibition zone (Escherichia coli; [3]) [millimeter] | inhibition zone (Escherichia coli; [4]) [millimeter] | inhibition zone (Bacillus cereus; [2]) [millimeter] | inhibition zone (Bacillus cereus; [3]) [millimeter] | inhibition zone (Bacillus cereus; [4]) [millimeter] | inhibition zone (Pseudomonas aeruginosa; [2]) [millimeter] | inhibition zone (Pseudomonas aeruginosa; [3]) [millimeter] | inhibition zone (Pseudomonas aeruginosa; [4]) [millimeter] | inhibition zone (Aspergillus flavus; [2]) [millimeter] | inhibition zone (Aspergillus flavus; [3]) [millimeter] | inhibition zone (Aspergillus flavus; [4]) [millimeter] | inhibition zone [1, 2] [millimeter] | inhibition zone [1, 3] [millimeter] | inhibition zone [1, 4] [millimeter] | melting point [°C] |
| --- | --- | --- | --- | --- | --- | --- | --- | --- | --- | --- | --- | --- | --- | --- | --- | --- | --- | --- | --- |
| O=C(O)c1cn(C2CC2)c2cc(N3CCNCC3)c(F)cc2c1=O [Cip., ciprofloxacin, reference compound] | 42 | 44 | 53 | 30 | 39 | 60 | 29 | 31 | 42 | 29 | 30 | 53 | 29 | 30 | 42 | 29 | 30 | 53 |  |
| O=C1N/C(=N/c2nc3ccccc3o2)NC1(c1ccccc1)c1ccccc1 [compound 3, 2-[(1,3-benzoxazol-2-yl)imino]-5,5-diphenylimidazolidin-4-one] | 16 | 19 | 23 | 25 | 33 | 39 | 27 | 30 | 42 | 26 | 30 | 48 | 19 | 23 | 37 | 22 | 25 | 47 | 234 to 236 |
